Reference: patent US6413975B1, “Purine derivatives having phosphodiesterase iv inhibition activity” (Euro-Celtique, S.A., priority 1999, dated 2002)
Counter-ions that a name gives are not always drawn. Like-named read-outs stand apart in the source and are kept apart here. Each block holds one molecule with its values, some of them ahead of it.

How the values were obtained:
Type IV PDE = assay: PDE IV inhibition: hydrolysis of [3H]-cyclic AMP by isolated Type IV PDE; type: biochemical, bovine
Experimental: The Type IV PDE is isolated from bovine tracheal smooth muscle using a procedure similar to that previously described by Silver, P. J., Hamel, L. T., Perrone, M. H. Bentley, R. G. Bushover, C. R., Evans, D. B.: Eur. J. Pharmacol. 150:85,1988.(1). Briefly, smooth muscle from bovine trachea is minced and homogenized using a polytron in 10 volumes of an extraction buffer containinhg 10 mM Tris-acetate (pH 7.5), 2 mM magnesium chloride, 1 mM dithiothreitol and 2,000 units/ml of aprotinin. This and all subsequent procedures are performed at 0-4° C. The homogenate is sonicated and then centrifiged at 48,000×g for 30 minutes. The resulting supernatant is applied to a DEAE Trisacryl M column previously equilibrated with sodium acetate and dithiothreitol. After applications of the sample, the column is washed with sodium acetate/dithiothreitol, after which the different forms of PDE are eluted from the column using a linear Tris-HCl/NaCl gradient. Fractions containing Type IV PDE are collected, dialyzed and concentrated to 14% of the original volume. The concentrated fractions are diluted to 50% with ethylene glycol and stored at -20° C.
Enzyme activity is assessed by measuring the hydrolysis of [^3H]-cyclic AMP, as described by Thompson, W. J., Teraski, W. L., Epstein, P. N., Strada, S. J.: Adv. Cyclic Nucleotide Res. 10:69, 1979. The cyclic AMP concentration used in this assay is 0.2 μM, which approximates the Km value. Protein concentration is adjusted to ensure that no more than 15% of the available substrate is hydrolyzed during the incubation period.
All test compounds are dissolved in dimethyl sulfoxide (final concentration of 2.5%). This concentration of dimethyl sulfoxide inhibits enzyme activity by approximately 10%.

[1] = adenines, Table 4, cyclic AMP 0.2 μM, read-out: calc PDE IV IC50
[2] = adenines, Table 7, read-out: calc PDE IV IC50
[3] = thioisoguanines, Table 2, cyclic AMP 0.2 μM, read-out: Calc IC50 PDE IV
[4] = dithioxanthines, Table 5, read-out: IC50 PDE IV

melting point: 172 to 175 °C
SMILES: COc1ccc(Cn2cnc(N)c3nc(C(C)(C)OCc4ccc(F)cc4)nc2-3)cc1OC (as salt: hydrochloride) [6-Amino-3-(3,4-dimethoxybenzyl)-8-(1-(4-fluorobenzyloxy-1-methyl-ethyl)-3H-purine Hydrochloride]

melting point: 190 to 195 °C
SMILES: CCCCCCn1cnc(NCC)c2ncnc1-2 (as salt: hydrochloride) [6-Ethylamino-3-hexyl-3H-purine]

IC50 (Type IV PDE; [1]): 37.8 µM
melting point: 251 to 254 °C
SMILES: CCNc1ncn(Cc2ccc(Cl)cc2)c2ncnc1-2.Cl [3-(4-chlorobenzyl)-6-ethylamino-3H-purine hydrochloride]

IC50 (Type IV PDE; read-out: PDE IV I50): 1.13 µM
melting point: 215 to 217 °C
SMILES: CCNc1ncn(Cc2ccc(Cl)cc2)c2nc(C(C)C)nc1-2 [3-(4-chlorobenzyl)-6-ethylamino-8-isopropyl-3H-purine]

SMILES: CCNc1ncn(Cc2ccc(OC)c(O[C@@H]3C[C@H]4CC[C@@H](C3)N4C)c2)c2nc(C(C)C)nc1-2 [6-Ethylamino-3-[(exo-8-methyl-8-azabicyclo(3,2,1)-octan-3-yl-oxy)-4-methoxy-benzy]-8-isopropyl-3-H-purine]
IC50 (Type IV PDE; [2]): 6.02 µM

IC50 (Type IV PDE; [2]): 24.5 µM
SMILES: CCNc1ncn(Cc2ccc(OC)c(OCc3ccncc3)c2)c2nc(C(C)C)nc1-2 [6-Ethylamino-8-isopropyl-3-[3-(pyridin-4-yl-methoxy)-4-methoxy-benzyl]-3H-purine]

IC50 (Type IV PDE; [2]): 4.1 µM
SMILES: CC(C)c1nc2c(N)ncn(Cc3ccc4c(c3)OCO4)c-2n1 [6-amino-3(3,4-methylenedioxybenzyl)-8-isopropyl-3H-purine]

IC50 (Type IV PDE; [2]): 0.92 µM
SMILES: COc1ccc(Cn2cnc(N)c3nc(C(C)C)nc2-3)cc1OC [6-amino-3-(3,4-dimethoxybenzyl)-8-isopropyl-3H-purine]

IC50 (Type IV PDE; [2]): 0.72 µM
SMILES: CC(C)(OCc1ccc(F)cc1)c1nc2c(N)ncn(Cc3ccc4c(c3)OCO4)c-2n1 [6-amino-3-(3,4-methylenedioxybenzyl)-8-[1-(4-fluorobenzyloxy)-1-methyl-ethyl]-3H-purine]

IC50 (Type IV PDE; [2]): 15.1 µM
SMILES: COc1ccc(Cn2cnc(N)c3nc(C(C)C)nc2-3)cc1O [6-amino-3-(3-hydroxy-4-methoxy)-benzyl)-8-isopropyl-3H-purine]

IC50 (Type IV PDE; [2]): 20.8 µM
SMILES: CC(C)c1nc2c(N)ncn(Cc3ccc(Cl)cc3)c-2n1 [6-amino-3-(4-chlorobenzyl)-8-isopropyl-3H-purine]

IC50 (Type IV PDE; [2]): 6.4 µM
SMILES: COc1ccc(Cn2cnc(N)c3nc(C(C)C)nc2-3)cc1OCc1ccccc1 [6-amino-3-((3-benzyloxy-4-methoxy)-bezyl)-8-isopropyl-3H-purine]

SMILES: COc1ccc(Cn2cnc(N)c3nc(C(C)(C)O)nc2-3)cc1OCCCCO [6-amino-3-[3-(4-hydroxybutoxy-4-methoxy)benzyl]-8-(1-hydroxy-1-methylethyl)-3H-purine hydrochloride]
IC50 (Type IV PDE; [2]): 17.1 µM

IC50 (Type IV PDE; [2]): 3.12 µM
SMILES: COc1ccc(Cn2cnc(N)c3nc(C(C)(C)OCc4ccccc4)nc2-3)cc1OCc1ccccc1 [6-amino-3-[(3-benzyloxy-4-methoxy)benzyl]-8-[(1-benzyloxy-1-methyl)ethyl]-3H-purine]

IC50 (Type IV PDE; [2]): 0.25 µM
SMILES: COc1ccc(Cn2cnc(N)c3nc(C(C)(C)O)nc2-3)cc1OC1CCCC1 [6-amino-3-[(3-cyclopentyloxy-4-methoxy)benzyl]-8-[(1-hydroxy-1-methyl)ethyl]-3H-purine]

IC50 (Type IV PDE; [2]): 23.2 µM
SMILES: CC(C)c1nc2c(N)ncn(CC3CCCC3)c-2n1 [6-amino-3-cyclopentylmethyl-8-isopropyl-3H-purine]

IC50 (Type IV PDE; [3]): 39.4 µM
SMILES: CCCn1c(=S)nc(N)c2[nH]c(C3CC3)nc21 [6-amino-8-cyclopropyl-3,7-dihydro-3 propyl-2-thio-2H-purin-2-one]

SMILES: COc1ccc(Cn2cnc(N)c3nc(C(C)C)nc2-3)cc1OCCCCO [6-amino-8-isopropyl-3-[(4-methoxy-3-([(4-hydroxybutoxy))benzyl]-3H-purine]
IC50 (Type IV PDE; [2]): 4.2 µM

IC50 (Type IV PDE; [3]): 33.6 µM
SMILES: CCCn1c(=S)nc(NCc2ccccc2)c2[nH]c(C3CC3)nc21 [6-benzylamino-8-(cyclopropyl)-3,7-dihydro-3-propyl-2-thio-2H-purin-2-one hydrochloride]

IC50 (Type IV PDE; [3]): 24.5 µM
SMILES: CCCCNc1nc(=S)n(CCC)c2nc(C3CC3)[nH]c12 [6-butylamino-8-cyclopropyl-3,7-dihydro-3-propyl-2-thio-2H-purin-2-one]

IC50 (Type IV PDE; [3]): 45.1 µM
SMILES: CCCn1c(=S)nc(NC2CCCC2)c2[nH]c(C(C)C)nc21 [6-cyclopentylamino-3,7-dihydro-8-isopropyl-3-propyl-2-thio-2H-purin-2-one]

IC50 (Type IV PDE; read-out: PDE IV I50): 7.41 µM
SMILES: CCCn1c(=S)nc(NC2CCCC2)c2[nH]c(C3CC3)nc21 [6-cyclopentylamino-8-cyclopropyl-3,7-dihydro-3-propyl-2-thio-2H-purin-2-one hydrochloride]

IC50 (Type IV PDE; [2]): 0.31 µM
SMILES: CCNc1nc(Cc2ccc(OC)c(OC)c2)[nH]c2nc(C(C)C)nc1-2 [6-ethylamino-2-(3,4-dimethoxybenzyl)-8-isopropyl-3H-purine]

IC50 (Type IV PDE; [2]): 0.44 µM
SMILES: CCNc1ncn(Cc2ccc3c(c2)OCO3)c2nc(C(C)C)nc1-2 [6-ethylamino-3-(3-,4-methylenedioxybenzyl)-8-isopropyl-3H-purine]

IC50 (Type IV PDE; [2]): 2.73 µM
SMILES: CCNc1ncn(Cc2ccc(OC)c(O)c2)c2nc(C(C)C)nc1-2 [6-ethylamino-3-(3-hydroxy-4-methoxybenzyl)-8-isopropyl-3H-purine]

IC50 (Type IV PDE; [2]): 1.85 µM
SMILES: CCNc1ncn(Cc2ccc(F)cc2)c2nc(C(C)C)nc1-2 [6-ethylamino-3-(4-fluorobenzyl)-8-isopropyl-3H-purine]

IC50 (Type IV PDE; [2]): 0.66 µM
SMILES: CCNc1ncn(Cc2ccc(OC)c(OC3CCCC3)c2)c2nc(C(C)C)nc1-2 [6-ethylamino-3-[(3-cyclopentyloxy-4-methoxy)benzyl]-8-isopropyl-3H-purine]

IC50 (Type IV PDE; [2]): 6.5 µM
SMILES: CCNc1ncn(Cc2ccc(OC)c(O)c2)c2nc(C(C)(C)O)nc1-2 [6-ethylamino-3-[(3-hydroxy-4-methoxy)benzyl]-8-[(1-hydroxy-1-methyl)ethyl]- -3H-purine]

IC50 (Type IV PDE; [2]): 1.2 µM
SMILES: CCNc1ncn(Cc2ccc(OC)cc2)c2nc(C(C)C)nc1-2 [6-ethylamino-8-isopropyl-3-(4-methoxybenzyl)-3H-purine]

SMILES: CCNc1ncn(Cc2ccc(OC)c(OCCCCO)c2)c2nc(C(C)C)nc1-2 [6-ethylamino-8-isopropyl-3-[(4-methoxy-3-(4-hydroxybutoxy))benzyl]-3H-purine]
IC50 (Type IV PDE; [2]): 1.75 µM

IC50 (Type IV PDE; [1]): 4.52 µM
SMILES: CCNc1ncn(CC)c2nc(Cc3ccc(OC)c(OC4CCCC4)c3)nc1-2 [8-(3-Cyclopentyloxy-4-methoxybenzyl)-3-ethyl-6-ethylamino-3H-purine Hydrochloride]

IC50 (Type IV PDE; read-out: PDE IV I50): 0.42 µM
SMILES: CCn1c(=S)c2[nH]c(C3CC3)nc2n(CC)c1=S [8-cyclopropyl-3,7-dihydro-1,3-diethyl-2,6-dithio-1H-purin-2,6-dione]

IC50 (Type IV PDE; [4]): 6.31 µM
SMILES: CC(C)CCn1c(=S)[nH]c(=S)c2[nH]c(C3CC3)nc21 [8-cyclopropyl-3,7-dihydro-3-(3-methylbutyl)-2,6-dithio-1H-purine-2,6-dione]

IC50 (Type IV PDE; [4]): 6.18 µM
SMILES: CCn1c(=S)[nH]c(=S)c2[nH]c(C3CC3)nc21 [8-cyclopropyl-3,7-dihydro-3-ethyl-2,6-dithio-1H-purine-2,6-dione]

IC50 (Type IV PDE; [4]): 64.5 µM
SMILES: CCCn1c(=S)[nH]c(=S)c2[nH]c(C3CC3)nc21 [8-cyclopropyl-3,7-dihydro-3-propyl-2,6-dithio-1H-purine-2,6-dione]

IC50 (Type IV PDE; read-out: PDE IV I50): 0.41 µM
SMILES: CCCn1c(=S)nc(NCc2ccncc2)c2[nH]c(C3CC3)nc21 [8-cyclopropyl-3,7-dihydro-3-propyl-6-(4-pyridyl-methylamino)-2-thio-2H-purin-2-one]

IC50 (Type IV PDE; read-out: PDE IV I50): 4.48 µM
IC50 (Type IV PDE; [3]): 53.8 µM
SMILES: CCCn1c(=S)nc(NCCO)c2[nH]c(C3CC3)nc21 [8-cyclopropyl-3,7-dihydro-6-(2-hydroxyethylamino)-3-propyl-2-thio-2H-purin-2-one]

IC50 (Type IV PDE; [4]): 2.27 µM
SMILES: S=c1[nH]c(=S)n(CC2CC2)c2nc(C3CC3)[nH]c12 [8-cyclopropyl-3-cyclopropylmethyl-3,7-dihydro-2,6-dithio-1H-purine-2,6-dione]

IC50 (Type IV PDE; [1]): 4.11 µM
SMILES: CCNc1ncn(CC2CC2)c2nc(C3CC3)nc1-2 [8-cyclopropyl-3-cyclopropylmethyl-6-ethylamino-3H-purine hydrochloride]

IC50 (Type IV PDE; [3]): 13.7 µM
SMILES: CCNc1nc(=S)n(CC)c2nc(C3CC3)[nH]c12 [8-cyclopropyl-3-ethyl-6-ethylamino-3,7-dihydro-2-thio-2H-purin-2-one]

IC50 (Type IV PDE; [3]): 8.48 µM
SMILES: CCCNc1nc(=S)n(CC)c2nc(C3CC3)[nH]c12 [8-cyclopropyl-3-ethyl-6-propylamino-2-thio-2H-purin-2-one]

IC50 (Type IV PDE; [1]): 15.7 µM
SMILES: CCCNc1ncn(CC)c2nc(C3CC3)nc1-2 [8-cyclopropyl-3-ethyl-6-propylamino-3H-purine hydrochloride]

IC50 (Type IV PDE; [1]): 7.9 µM
SMILES: CCCn1cnc(NC2CC2)c2nc(C3CC3)nc1-2 [8-cyclopropyl-6-cyclopropylamino-3-propyl-3H-purine hydrochloride]

IC50 (Type IV PDE; [1]): 6.31 µM
SMILES: CCCn1cnc(NCC)c2nc(C3CC3)nc1-2 [8-cyclopropyl-6-ethylamino-3-propyl-3H-purine hydrochloride]
